Data on three compounds can be found in ChEMBL document CHEMBL1649502, “Characterization of cefoxitin-resistant Escherichia coli isolates from recreational beaches and private drinking water in Canada between 2004 and 2006” (2009).

Some results are limits rather than exact numbers.

The test system of this experiment is Escherichia coli. As to the kind of experiment: Antibacterial activity against cefoxitin-resistant Escherichia coli by microdilution method. Type of experiment: functional.
As a reminder, the MIC is the smallest concentration in the dilution series that meets the test's criterion for growth inhibition. The low end stands for a more susceptible organism, the high end for a less susceptible organism. Regarding `CO[C@@]1(NC(=O)Cc2cccs2)C(=O)N2C(C(=O)O)=C(COC(N)=O)CS[C@@H]21` [CEFOXITIN], the minimum inhibitory concentration (MIC) is at least 16 µg/mL.
Take `CO/N=C(\C(=O)N[C@@H]1C(=O)N2C(C(=O)O)=C(CSC(=O)c3ccco3)CS[C@H]12)c1csc(N)n1` [CEFTIOFUR]: the minimal inhibitory concentration (MIC) is at least 8 µg/mL.
Under `CN[C@@H]1[C@H](O[C@H]2[C@H](O[C@H]3[C@H](O)[C@@H](O)[C@H](N=C(N)N)[C@@H](O)[C@@H]3N=C(N)N)O[C@@H](C)[C@]2(O)C=O)O[C@@H](CO)[C@H](O)[C@H]1O` [STREPTOMYCIN] stands at least 64 µg/mL.
